Experimental data from ChEMBL document CHEMBL1138448, “Synthesis, biological evaluation, and molecular docking of Ugi products containing a zinc-chelating moiety as novel inhibitors of histone deacetylases” (J Med Chem, 2009).
Calls of active or inactive are those of the source. The calls are words filed in the database; no cut-off is given here.

Key:
SH-SY5Y [1] = test: Cytotoxicity against human SH-SY5Y cells assessed as cell viability at 10 uM after 48 hrs by MTT assay relative to control; format: functional; details: for viability at 10 µM: Homo sapiens, SH-SY5Y, 48 h, read-out: Activity
SH-SY5Y [2] = test: Cell cycle arrest in human SH-SY5Y cells assessed as accumulation at G2/M phase at 3 uM after 16 hrs by flow cytometry; format: functional
SH-SY5Y [3] = test: Cytotoxicity against human SH-SY5Y cells assessed as cell viability after 48 hrs by MTT assay; format: functional, cell-based
Histone deacetylase = test: Inhibition of HDAC in human SHSY5Y cells by fluorimetric cellular activity assay; format: cell-based; details: sh-sy5y
[4] = target: Histone deacetylase (Homo sapiens) (UniProt Q13547+O15379+Q9UBN7+Q92769+Q9UQL6+Q8WUI4+Q9BY41+Q96DB2+P56524+Q9UKV0+Q969S8); details: SH-SY5Y, at 10 µM
Description: Inhibition of HDAC in human SHSY5Y cells at 10 uM by fluorimetric cellular activity assay

Row | SMILES | viability at 10 µM (SH-SY5Y [1]) [%] | IC50 (SH-SY5Y [3]) [µM] | also measured
1 | O=C(CCCCCCC(=O)Nc1ccccc1)NO [VORINOSTAT] | – | – | Activity (SH-SY5Y [1]): 33.8%; Activity (SH-SY5Y [2]): 34%
2 | Nc1ccccc1NC(=O)CCCCCC(=O)N(Cc1ccccc1)C(Cc1ccccc1)C(=O)NC1CCCCC1 (stereo not given) | 91.6 | – | –
3 | O=C(CCCCCC(=O)N(Cc1ccccc1)C(Cc1ccccc1)C(=O)NC1CCCCC1)NO (stereo not given) | 27.4 | 2.5 | IC50 (Histone deacetylase): 1.2 µM; Activity (SH-SY5Y [2]): 34.3%; inhibition [4]: Active
4 | O=C(CCCCCCC(=O)N(Cc1ccccc1)C(Cc1ccccc1)C(=O)NCCc1ccccc1)NO (stereo not given) | 53.1 | – | –
5 | O=C(CCCCCC(=O)N(Cc1ccccc1)C(Cc1ccccc1)C(=O)NCCc1ccccc1)NO (stereo not given) | 30.8 | 7.6 | –
6 | O=C(CCCCCC(=O)N(CCc1ccccc1)C(Cc1ccccc1)C(=O)NCCc1ccccc1)NO (stereo not given) | 30.2 | 2.9 | –
7 | CCCCCCCC(C(=O)NCCc1ccccc1)N(Cc1ccccc1)C(=O)CCCCCCC(=O)NO (stereo not given) | 53 | – | –
8 | CN(C(=O)CCCCCCC(=O)NO)C(Cc1ccccc1)C(=O)NCCc1ccccc1 (stereo not given) | 94.4 | – | –
9 | O=C(CCCCCC(=O)N(CCc1ccccc1)C(Cc1ccccc1)C(=O)NCc1ccccc1)NO (stereo not given) | 34.9 | 7.5 | –
10 | CCCCCCC(C(=O)NC1CCCCC1)N(CCc1ccccc1)C(=O)CCCCCC(=O)NO (stereo not given) | 35 | 2.9 | –
11 | Nc1ccccc1NC(=O)CCCCCCC(=O)N(Cc1ccccc1)C(Cc1ccc(-c2ccccc2)cc1)C(=O)NCCc1ccccc1 (stereo not given) | 74 | – | –
12 | O=C(CCCCCCC(=O)N(Cc1ccccc1)C(Cc1ccc(-c2ccccc2)cc1)C(=O)NCCc1ccccc1)NO (stereo not given) | 22.2 | 4.2 | IC50 (Histone deacetylase): 4.4 µM; Activity (SH-SY5Y [2]): 11.3%; inhibition [4]: Active
